Experimental data from a melting point compilation (Tetko et al.; mined from patent text by program, amines drawn as free bases though some values may be those of a salt).

| SMILES | melting point [°C] |
| --- | --- |
| COC(=O)[C@H](Cc1ccccc1)NC(=O)c1ccc([N+](=O)[O-])cc1 | 115 to 116 |
| O=C(NC(=O)c1c(F)cccc1F)Nc1ccc(-c2ccc(Cl)cc2)c(Cl)n1 | 237 to 241 |
| COc1ccc2c3c(c(=O)oc2c1)CN(Cc1ccc(Cl)cc1)CC3 | 140 to 142 |
| O=C(O)C1C2CCC(C2)C1NS(=O)(=O)c1ccccc1 (stereo not drawn) | 157 to 159 |
| COC1=C(OC)C(=O)C(CCCCCCCCCC(=O)N[C@@H](CCCCN)C(=O)O)=C(C)C1=O | 107 |
| Cc1nc(SCC(N)=O)nc(C)c1Br | 175 to 177 |
| CCc1nc2c(cnn2CC)c(NC2CCOCC2)c1CNC(=O)c1cc(C)cc(C(=O)NCc2ccc(Cl)c(Br)c2)c1 | 212 to 214 |
| COC(=O)CCC(=O)c1ccc2c(c1)CC(CO)O2 (stereo not drawn) | 70 to 72 |
| COc1cc(-c2nc(N)sc2CSC2CCCCC2)c(OC)cc1C | 143 to 144 |
| CCCOC(C)c1ccc(OCc2ccccc2)cc1 (single isomer, unassigned; (+)) | 51 to 53 |
| FC(F)(F)c1ccc(C=Cc2nc(CNc3ccc(OCCCn4ccnn4)cc3)co2)cc1 | 134 to 136 |
| Cc1ccc2[nH]c(=O)n3c(=O)[nH]nc3c2c1C | > 350 |
| CS(=O)(=O)OCCN(CCI)c1c(C(=O)NCCOP(=O)(O)O)cc([N+](=O)[O-])cc1[N+](=O)[O-] | 147 to 150 |
| Cn1c(=O)cnn(-c2ccc(Cl)c(C(=O)NCCc3ccccc3Cl)c2)c1=O | 157 to 161 |
| CSc1coc2cc(NS(C)(=O)=O)c(Oc3ccccc3)cc2c1=O | 175 to 176 |
| CCCc1ccc(OCCC(C)C)c2c(=O)cc(-c3nnn[nH]3)oc12 | 199 to 200 |
| Cc1c(NC(=O)C(CSC(=O)C(C)C)Cc2ccccc2)cccc1C(=O)O (stereo not drawn) | 178 to 183 |
| COc1cc2c(c(OC)c1)C(=O)CCC2 | 58 to 61 |
| CCCCCCN1C(=O)NC(=O)C1O (stereo not drawn) | 96 to 97 |
| O=C1CC(c2ccccc2)c2cc(O)ccc2O1 (stereo not drawn) | 138 |
| COC(=O)CC[C@H](NC(=O)c1ccc(CCn2cnc3nc(NC(=O)C(C)(C)C)cc-3c2O)cc1)C(=O)OC | 247 |
| COC(=O)C(=O)c1nsc(NC(=O)Oc2ccccc2)n1 | 74 to 79 |
| CC(C)c1nn(C(=O)NC2CCCC2)c(=O)n1N | 109 |
| Cc1cccc(-c2sc(N)nc2-c2ccnc(-c3ccc(CN4CCCC4)cc3)c2)n1 | 200 |
| NCC1(Cc2ccc(CC(=O)O)cc2)CCC1 | > 255 |
| CON=C(C)c1ccc2c(c1)ncn2-c1cccc(-c2nccs2)c1 | 157 to 159 |

| SMILES | melting point [°C] |
| --- | --- |
| CCOC(=O)C(N=C(c1cc(Cl)ccc1N)c1ccccc1F)C(=O)OCC | 119 |
| C=CCNc1c(C(=O)OCC)cnc2cn(C(C)(C)OC)nc12 | 102 to 103 |
| CCOC(=O)C(C)(C)NC(=O)c1cccc(C2=NC(C)(C)Cc3cc(OC)c4c(c32)CC(C)(C)O4)c1 | 114 to 115 |
| CCCCCCCCCCOc1ccc(NC(=O)c2ccc(O)cc2)cc1OCCCCCCCCCC | 137 |
| C(=Cc1ccc(-c2ccc(OCCCN3CCCCC3)cc2)cc1)CN1CCCCC1 | 100 to 105 |
| COc1cc2c(cc1OC)-c1c(OC)c(OC)cc3ccnc(c13)C2=O | 229 to 230 |
| CCc1c(Oc2ncc(C(F)(F)F)cc2Cl)n[nH]c1C | 74 to 75 |
| OCc1cccc(-c2ncc(OCCN3CCOCC3)cn2)c1 | 101 to 102 |
| O=C(O)CCc1cnoc1-c1ccc(-c2ccccc2)cc1 | 94 to 95 |
| CN(C)c1ccc(C(=N)Nc2cccc(NC(=O)C=Cc3ccccc3)c2)cc1 | 225 to 227 |
| CCCCOc1ccc(S(=O)(=O)C2(C(=O)NO)CCN(Cc3ccc(OC)cc3)CC2)cc1 | 173 |
| Nc1ccc(N2CCN(Cc3ccccc3)CC2)cc1C(=O)O | 242 |
| COc1cc(/C=C/CCO)ccc1OCc1ccccc1 | 57 to 61 |
| O=C1O[C@@H](CNC(=S)C(F)F)CN1c1ccc(C2CCS(=O)CC2)c(F)c1 (stereo partly drawn) | 192 to 194 |
| CCCCCCC(=O)Nc1ncnc(NC2CC2)n1 | 195 to 197 |
| CCOC1=NC(C)(C)NC(N)=N1 | 175 to 178 |
| O=c1oc2ccc(Cl)cc2c(O)c1CCO | 185 to 186 |
| COc1ccc(C(=O)NCc2cccc3c2CN(C2CCC(=O)NC2=O)C3=O)cc1 (stereo not drawn) | 289 to 291 |
| CCNc1nc2ccc(OC(F)(F)F)cc2s1 | 135 |
| OC(=S)CCc1ccc(Cl)c(Cl)c1 | 63 to 64 |
| CCn1cc(CO)c(OCc2ccc(OCc3nc(-c4ccco4)oc3C)c(OC)c2)n1 | 117 to 118 |
| Nc1ncc(-c2ccc(=O)[nH]n2)c(-c2ccccc2)n1 | > 280 |
| CCCCCCCCCCCCCCCCCCOCCSCCOC(=O)NCc1ccccn1 | 60 to 62 |
| CCOC(=O)c1cn(CCNC(=O)OC(C)(C)C)c(Br)c1-c1cccc(F)c1 | 108 to 110 |
| CCCNC(=O)c1cccnc1Oc1cccnc1 | 55 to 56 |
| O=C(O)C(=O)c1c(F)cc(OCCOc2ccc3ccccc3c2)cc1F | 157 to 158 |

| SMILES | melting point [°C] |
| --- | --- |
| COc1ccc(C(=O)NCCC=CCCCNC(=O)c2ccc(OC)cc2)cc1 | 141 to 143 |
| O=C(Cc1ccccc1)N1CCN(c2ccc(Cl)cc2)CC1 | 93 to 94 |
| C[C@@H](Nc1ncnc2ccncc12)c1ccccc1 | 138 |
| Cc1c(NC(=O)c2ccc(-c3ccc(F)cc3)cc2)ccc2cc(CN3CCCCC3)cnc12 | 188 to 190 |
| CCCn1c(COCC)nc2c(N)nc3ccc(OCCCCCCNS(C)(=O)=O)cc3c21 | 164 to 167 |
| CC(=O)NCC1CC(c2ccc(F)c(F)c2)=NO1 (stereo not drawn) | 136 to 137 |
| O=C(OCc1ccc(OCc2ccc(Cl)cc2)cc1)c1cccnc1 | 101 to 102 |
| O=C(O)CCc1cnoc1-c1ccc2c(c1)OCO2 | 150 to 151 |
| CNC(=O)[C@@H]1CSCN1S(=O)(=O)c1ccc(Cl)c(COc2cccc3c(-n4ccnc4)cc(C)nc23)c1Cl | 120 |
| O=c1[nH]c2ccccc2cc1CC1CCc2ccccc2N1 (stereo not drawn) | 196 to 199 |
| COc1ccc2c(=O)c(O)cn(C)c2c1 | 228 |
| CCC(=NO)C(C)(C)NCC(C)(C)CN | 118 to 120 |
| CCc1cc(C(=O)O)c(S(N)(=O)=O)o1 | 186 |
| Cc1ncc(Cn2c(NC3CCN(CCNC(=O)c4cc5ccccc5n4C)CC3)nc3ccccc32)o1 | 104 |
| COCc1cc(O)nc(C)n1 | 168 to 170 |
| CSC1NC(=O)N(Cc2ccccc2)C(=O)N1N=C(C)C (stereo not drawn) | 148 to 150 |
| N#Cc1c(O)cccc1[N+](=O)[O-] | 200 |
| COc1ccccc1N1CCN(S(=O)(=O)c2ccc(Nc3ccnc4cc(C(F)(F)F)ccc34)cc2)CC1 | 146 to 148 |
| COc1cccc(OC)c1-c1nc2cnncc2[nH]1 | 207 |
| Cc1cccc(Nc2nc3c(s2)CCc2[nH]ncc2-3)n1 | 280 |
| COc1cc(C)cc(OC)c1CCCCCNC(=O)[C@@H](CCCCN)NC(=O)c1cc2ccccc2n1CC(=O)O | 173 |
| COC(=O)c1c(C(=O)OC)c(-c2ccc(OC)c(OC)c2)c2sccc2c1OC | 118 |
| CCOC(=O)c1c(C(F)(F)F)nc(C(F)(F)F)c(C)c1OC(C)=O | 49 to 51 |
| Cc1cscc1-c1cccc2c1nnn2-c1ccnc(NC2CCN(S(C)(=O)=O)CC2)n1 | 244 to 245 |
| COC(=O)COc1cccc2c1cc(C)n2Cc1cccc(-c2ccccc2)c1 | 99 to 102 |
| Cc1ccc(-c2c(N)ncnc2Cl)cc1 | 168 to 171 |

| SMILES | melting point [°C] |
| --- | --- |
| CCc1c2n(c3ccccc13)C(=O)C(Cc1nc[nH]c1C)CC2 (stereo not drawn) | 222 to 224 |
| Cc1nc(Cl)c2c(c1O)COC2(c1ccccc1)c1cccc(Cl)c1Cl (stereo not drawn) | 221 |
| O=C(OCCc1c(-c2ccccc2)n2nnnc2n2ncnc12)C12CC3CC(CC(C3)C1)C2 | 129 to 130 |
| CCCCCCCCCCCCCCCCCCSP(=S)(C1CCCCC1)C1CCCCC1 | 67 to 69 |
| CCOC(=O)c1ccc(-c2ccc(OCC(O)CO)c(-c3ccc4c(c3)C(C)(C)CCC4(C)C)c2)cc1 (stereo not drawn) | 56 |
| CC(=O)OCC(C)(Sc1cc2ccccc2[nH]1)c1ccccc1 (stereo not drawn) | 105 to 106 |
| Cc1nnc(-c2ccc(C)c(Br)c2)o1 | 91 to 93 |
| Cc1nc2c([nH]1)C(=O)N1CCN=C1N2Cc1ccc(Cl)cc1 | 312 to 314 |
| O=C(CCCN1CCN(c2noc3cc(OC(=O)C45CC6CC(CC(C6)C4)C5)ccc23)CC1)c1ccc(F)cc1 | 157 to 158 |
| CN(C)CC(=O)NCc1cccc(-c2cc3c(Nc4ccc(F)c(Cl)c4)ncnc3[nH]2)c1 | 272 to 273 |
| CCC(=O)OCC(=O)C1(OC(=O)CC)CCC2C3CC(C)C4=CC(=O)C=CC4(C)C3C(O)CC21C (stereo not drawn) | 126 |
| C=C(C)Cc1cc2c(cc1O)CC(=O)N2CC | 118 to 120 |
| CCN(CC)CCNC(C(=O)NC(C)(C)C)c1ccccc1 (stereo not drawn) | 50 to 52 |
| C=CC1CCCC(=O)N1Cc1ccccc1Cl (stereo not drawn) | 37 to 39 |
| COc1cc2c(cc1OC)OCCC(C(=O)O)=C2 | 209 to 210 |
| Cc1nc2c3ccccc3ccn2c1CN1CCN(CCO)CC1 | 115 to 117 |
| c1ccc2c(c1)CC(CN1CCC(c3c[nH]c4cc5c(cc34)OCO5)CC1)C2 | 187 to 188 |
| COc1ccc(/C=C(\C#N)c2cccc(F)c2)cc1OC1CCCC1 | 114 to 116 |
| CCOC(=O)CC(=O)NC(Cc1ccccc1)C(C)=O (stereo not drawn) | 68 to 69 |
| CCOC(=O)C1(NS(=O)(=O)c2ccc3c(Cl)cnc(Cl)c3c2)CCC1 | 123 to 125 |
| CCCCCCCCCCCCOC(=O)COCC(=O)O | 57 to 59 |
| COc1ccc(-c2c(CCN3CCN(c4cc(C)ccn4)CC3)c3cccc4c3n2CCC4)cc1 | 120 |
| CC(=O)OCC1c2c(c3ccccc3c3ccccc23)-c2c1c1ccccc1c1ccccc21 | 209 to 210 |
| CC(=O)SCC(Cc1ccccc1)C(=O)Nc1cc(C(=O)OCc2ccccc2)ccc1C (stereo not drawn) | 134 to 135 |
| Cc1oc(-c2ccccc2)nc1CCOc1ccc(C=O)c2sccc12 | 154 |
